Reference: patent US20180215710A1, “METHODS FOR INHIBITING NATIVE AND PROMISCUOUS UPTAKE OF MONOAMINE NEUROTRANSMITTERS” (priority 2011, published 2018)
Entries after “also recorded” stand apart in the source; their conditions may differ.

What was measured:
[1] = Safety monitoring in Phase 1 single-dose PET study; assay type: in vivo, human; details: single oral dose of 150 mg
Excerpt: (§1) PET scans were done at baseline and at 2 and 7-hour post-dose via measurement of [^11C]DASB tracer binding. Periodic blood samples were collected for evaluation of (+)-1-(3,4-dichlorophenyl)-3-azabicyclo[3.1.0]hexane PK. Safety was monitored by clinical and laboratory evaluations, including vital signs, physical examination, clinical chemistry, hematology, urinalysis, and ECG.

[2] = target: T1, serotonin transporters (SERT) (Homo sapiens, UniProt P31645); assay: Brain SERT occupancy by PET with [11C]DASB tracer, Phase 1 single-dose study; assay type: in vivo; details: N = 3
T1 construct: from tissue; host or cells: living human brain (3 healthy adult male volunteers), PET with [11C]DASB
T1 sequence (P31645 whole entry): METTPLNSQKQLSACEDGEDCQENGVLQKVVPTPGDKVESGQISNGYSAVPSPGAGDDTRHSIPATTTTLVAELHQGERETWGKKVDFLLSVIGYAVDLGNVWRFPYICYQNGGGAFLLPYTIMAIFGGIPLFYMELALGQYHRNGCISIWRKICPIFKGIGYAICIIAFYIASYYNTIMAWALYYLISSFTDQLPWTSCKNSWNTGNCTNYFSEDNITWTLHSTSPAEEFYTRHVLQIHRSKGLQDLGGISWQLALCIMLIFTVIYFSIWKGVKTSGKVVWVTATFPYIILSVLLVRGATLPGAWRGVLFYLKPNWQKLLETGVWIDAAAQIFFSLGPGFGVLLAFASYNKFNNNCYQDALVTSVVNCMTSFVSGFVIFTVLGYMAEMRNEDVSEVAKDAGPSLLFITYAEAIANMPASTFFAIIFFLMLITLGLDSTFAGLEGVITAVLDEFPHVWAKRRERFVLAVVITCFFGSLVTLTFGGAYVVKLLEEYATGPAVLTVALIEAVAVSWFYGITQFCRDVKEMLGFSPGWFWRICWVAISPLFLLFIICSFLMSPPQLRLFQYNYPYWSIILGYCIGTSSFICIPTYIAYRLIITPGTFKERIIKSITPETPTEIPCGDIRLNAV
Excerpt: This study was a Phase 1, single-dose, randomized, open-label study using positron emission tomography (PET) and [^11C]DASB ([^11C]N,N-dimethyl-2-(2-amino-4-cyanophenylthio) benzylamine) as a PET tracer in 3 healthy, young, adult male volunteer subjects. Using PET imaging, uptake inhibitor effects may be measured based on the proportion of SERT sites blocked in the brain.
as §1

[3] = Plasma concentration in Phase 1 single-dose PET study; assay type: in vivo, human; details: ~7 h after single oral dose of 150 mg, N = 3
Excerpt: as §1

[4] = test system: patients with Major Depressive Disorder; assay: Phase 2 six week double-blind placebo-controlled study in patients with Major Depressive Disorder; assay type: in vivo, human; details: for CGI-I in comparison to placebo (in words): MITT n=56, MMRM
Excerpt: Subjects were identified who were between the ages of 18-65 (inclusive), and met criteria for Major Depressive Disorder in accordance with the Diagnostic and Statistical manual of Mental Disorders-IV-TR and confirmed by the MINI International Neuropsychiatric Interview. […] They were also required to have a BMI≤35 and body weight>45 kg at the Screening Visit. […] Subjects were required to refrain from taking antidepressants, anticonvulsants including gabapentin and pregabalin, neuroleptics, MAO inhibitors, barbiturates, benzodiazepines, stimulants, antipsychotics, lithium, anxiolytics and beta blockers starting two weeks prior to the study and continuing until after the follow-up visit. Subjects were evaluated for safety parameters prior to and throughout the trial by a variety of measures including electrocardiogram, physical examination, vital signs and body weight, and clinical laboratory testing including a lipid panel, CBC with differential and urinalysis. […] Efficacy was determined by measuring the change from baseline in the Montgomery-Åsberg Depression Rating Scale (MADRS), the HAMD-17, the Clinical Global Impression Global Improvement Scale (CGI-1), the Clinical Global Impression-Severity scale (CGI-S) and the Derogatis Interview for Sexual Functioning Self-Report (DISF-SR). […] Comparisons between treatment groups based on MADRS (the primary efficacy parameter), […] and CGI-S scores were analyzed using a mixed-repeated measures (MMRM) analysis model including factors for Subject, Visit, Treatment Arm and Baseline value as a covariate. Adjusted least-squares means from these models are presented. Comparisons between groups were made at each post-baseline visit using model-based contrasts and adjusted degrees of freedom. For these analyses no explicit data imputations were made prior to the analysis. Response and remission categorical data were analyzed using chi-square tests. Inferential analyses of safety data were conducted with ANOVA models or chi-square tests. Two-tail alpha was set to 0.05. All analyses were conducted using SAS version 9.2.

[5] = test system: extracellular norepinephrine and dopamine in prefrontal cortex; details: Bymaster et al. 2002a; cited from earlier work
[6] = ~2 h after single oral dose of 150 mg
[7] = ~7 h after single oral dose of 150 mg
[8] = 100 mg, Visit 8, LOCF, Completers, 50% reduction or more of baseline total score
[9] = six week double-blind, MITT n=56, MMRM LS means

**Q.** What does the source list for `Clc1ccc(C23CNCC2C3)cc1Cl` (single isomer, unassigned; (+)) [(+)-1-(3,4-dichlorophenyl)-3-azabicyclo[3.1.0]hexane]?
**A.** discontinuation due to a clinical or laboratory adverse experience [1]: no subjects were discontinued; laboratory safety tests [1]: no clinically meaningful changes; physical examinations and ECGs [1]: no clinically meaningful changes from pre-dose evaluations; vital sign measurements (blood pressure, pulse rate, respiratory rate, oral temperature) [1]: No dose-related changes; serious adverse events ([1]; 3 healthy male subjects): No serious adverse events were reported; total adverse events reported by one subject ([1]; rated definitely not related to study drug): 5; Mean SERT Occupancy, Mean [2, 6]: approximately 48%; Mean SERT Occupancy, Striatum [2, 6]: 48%; Mean SERT Occupancy, Thalamus [2, 6]: 48%; Mean SERT Occupancy, Striatum [2, 7]: 32%; Mean SERT Occupancy, Thalamus [2, 7]: 33%; Mean Plasma Concentration [3]: ~405 ng/mL; tolerability ([4]; 50 mg/day then 100 mg/day): relatively well tolerated; remission rates by CGI-S score of ≤2 compared to placebo (in words) ([4]; 100 mg, LOCF): significantly greater remission rates; Response rate HAMD-17 [4, 8]: (11/20) 55.00%; Response rate MADRS [4, 8]: (8/20) 40.00%; Remission rate CGI-S ([4]; 100 mg, Visit 8, LOCF, Completers, CGI-S ≤ 2): (7/20) 35.00%; Remission rate HAMD-17 ([4]; 100 mg, Visit 8, LOCF, Completers, HAMD-17 ≤ 7): (4/20) 20.00%; Remission rate MADRS ([4]; 100 mg, Visit 8, LOCF, Completers, MADRS ≤ 12): (6/20) 30.00%; anhedonia factor score of the MADRS compared to placebo (in words) ([4]; MITT n=56, MMRM LS means, listed as EB-1010): statistically significant improvement; Anhedonia factor difference placebo vs drug ([4]; Visit 8, MMRM, MITT): 1.41; CGI-I difference placebo vs drug ([4]; Visit 8, MMRM, MITT): 0.62; CGI-S difference placebo vs drug ([4]; Visit 8, MMRM, MITT): 0.22; HAMD-17 difference placebo vs drug ([4]; Visit 8, MMRM, MITT): 3.12; MADRS difference placebo vs drug ([4]; Visit 8, MMRM, MITT): 3.83; Anhedonia factor (LS Mean − SE) ([4]; Visit 8, MMRM, MITT, n = 30): 7.92 (0.50); CGI-I (LS Mean − SE) ([4]; Visit 8, MMRM, MITT, n = 30): 2.13 (0.20); CGI-S (LS Mean − SE) ([4]; Visit 8, MMRM, MITT, n = 30): 3.31 (0.15); HAMD-17 (LS Mean − SE) ([4]; Visit 8, MMRM, MITT, n = 30): 14.90 (1.40); overall statistical effect size (Cohen's d), MADRS total score ([4]; Week 6, vs placebo): −0.63; discontinuation due to AEs ([4]; compared with placebo): Two patients in each treatment group discontinued the study early due to AEs; heart rate, systolic or diastolic blood pressure compared to placebo ([4]; human, in vivo): did not result in significant increases; serious AEs ([4]; human, in vivo): no serious AEs were reported; weight gain ([4]; human, in vivo): not associated with significant weight gain; percentage of patients who reported an adverse treatment event ([4]; placebo 39.28%): 30.30%; CGI-I in comparison to placebo (in words) ([4]; six week double-blind): statistically significantly superior to placebo; CGI-S in comparison to placebo (in words) [4, 9]: improvement; HAM-D in comparison to placebo (in words) [4, 9]: decrease; MADRS total score in comparison to placebo (in words) [4, 9]: statistically significantly superior; MADRS total score in comparison to placebo (in words) ([4]; six week double-blind, MITT n=56, MMRM LS means, listed as EB-1010): decrease; CGI-I in comparison to placebo (in words) ([4]; six week double-blind, listed as EB-1010): decrease; efficacy in treating depression (in words) ([4]; titrated dose of 50 mg/day then 100 mg/day): effective for treatment of patients with MDD; also recorded: efficacious in treating depression

**Q.** With `CNCC[C@@H](Oc1ccccc1C)c1ccccc1` [atomoxetine] as the compound, how does the “extracellular norepinephrine and dopamine concentrations in prefrontal cortex” value [5] read?
**A.** The value was “increased extracellular norepinephrine and dopamine concentrations”.
